Where two headings read alike, the source gives them in different places.
Key:
[1] = system: PDE9; settings: cited from earlier work
[2] = system: BuChE; parameters: method as in PMID 31250747; settings: Figure 1; cited from earlier work
[3] = system: AChE; parameters: method as in PMID 31250747; settings: Figure 1; cited from earlier work
[4] = molecular target: T1, PDE9 (catalytic domain of PDE9A2) (Homo sapiens, UniProt O76083); test: Enzymatic assay against PDE9 (3H-cGMP hydrolysis, scintillation counting); assay type: biochemical; settings: 0.25 h, read-out: Inhibition ratio against PDE9; for inhibition at 0.01 µM: at a concentration of 0.01 μM; for inhibition at 0.1 µM: at a concentration of 0.1 μM
T1 construct: PDE9 recombinant catalytic domain (amino acid 181–506); made in house; host or cells: E. coli BL21 (Codonplus)
Experimental: In brief, E. coli strain BL21 (Codonplus), which carrying with recombinant pET-PDE9A2 plasmid, was grown in LB medium (containing 100 μg/mL ampicillin and 0.4% glucose) at 37 °C until an OD600 achieved 0.6–0.8. Then, the temperature was turned down to 15 °C, and 0.1 mM iso-propyl-b-D-thiogalactopyranoside was added to LB medium to induce the expression of PDE9A2 protein. Bacteria were induced for 20 h and collected for purified PDE9A2 recombinant protein by a Ni-NTA column (Qiagen, Venlo, The Netherlands).
As for the enzymatic assays, ^3H-cGMP (20,000–30,000 cpm, GE Healthcare), the substrate for enzymatic assays against PDE9A2, were diluted in an assay buffer (containing 50 mM Tris-HCl (pH 8.0), 10 mM MgCl2, and 1 mM DTT). And then, the substrate ^3H-cGMP, catalytic domain of PDE9A2, and different concentrations of tested compounds were incubated at room temperature for 15 min. To terminate the reaction, 0.2 M ZnSO4 and 0.2 N Ba(OH)2 were added to the mixture, leaving unreacted ^3H-cGMP in the supernatant. […] Each compound was measured at a minimum of eight concentrations for the IC50 calculation and repeated at least three times.
4.Enzymatic assays against PDE9
The assay buffer contains 50 mM Tris-HCl (pH 8.0), 10 mM MgCl2 or 4 mM MnCl2, 1 mM DTT, and 10-20 nM 3H-cGMP (15000−30000 cpm/assay, CPM control). The reaction was carried out at room temperature for 15 min and then terminated by addition of 0.2 M ZnSO4. The reaction product 3H-GMP was precipitated out by […], whereas unreacted 3H-cGMP remained in the supernatant. The radioactivity in the supernatant was measured in 2.5 […]
(CPMenzyme). For the measurement of IC50 of inhibitors, at least seven concentrations of inhibitors were used in the presence of 3H-cGMP. The enzyme concentration in a range of 10− 100 ng/mL, which hydrolyzed 50- 70% of the substrate, was chosen for each inhibitory assay. The radioactivity was recorded as CPMinhibitor. The IC50 values for PDE9 were calculated using a nonlinear regression analysis.
Inhibition = […] × 100%

[5] = Antioxidant activity, ORAC-FL method; settings: Trolox as standard
Experimental: The modified Oxygen Radical Absorbance Capacity Fluorescein (ORAC-FL) method was used for antioxidant activity test. In brief, the mixture of test compounds (20 μL) and fluorescein (120 μL, final concentration of 150 nM) was added into a black 96-well plate and incubated for 15 min at 37 °C. Then, 60 μL of 2,2′-azobis(2-amidinopropane) dihydrochloride (AAPH) solution (12 mM) was added rapidly to induce the reaction. The fluorescence with an excitation wavelength of 485 nm and emission at 535 nm was measured in Spectrafluor Plus plate reader (Tecan, Crailsheim, Germany) every minute for 4 h. Integration of the area under the curve (AUC) was […] 1 to 8 μM Trolox was used as a standard. Each compound was tested at 1–10 μM at least in three independent assays. The ORAC-FL values of each compound were calculated according to Equation (1) and expressed as Trolox equivalents.(1) ORAC-FL value=AUCsample−AUCblank/AUCTrolox−AUCblank×ConcentrationTrolox/Concentrationsample

[6] = system: HDAC6; parameters: method as in PMID 31441641; settings: Figure 1; cited from earlier work
[7] = Figure 1, current PDE9 inhibitors

T1 sequence (O76083 241-566): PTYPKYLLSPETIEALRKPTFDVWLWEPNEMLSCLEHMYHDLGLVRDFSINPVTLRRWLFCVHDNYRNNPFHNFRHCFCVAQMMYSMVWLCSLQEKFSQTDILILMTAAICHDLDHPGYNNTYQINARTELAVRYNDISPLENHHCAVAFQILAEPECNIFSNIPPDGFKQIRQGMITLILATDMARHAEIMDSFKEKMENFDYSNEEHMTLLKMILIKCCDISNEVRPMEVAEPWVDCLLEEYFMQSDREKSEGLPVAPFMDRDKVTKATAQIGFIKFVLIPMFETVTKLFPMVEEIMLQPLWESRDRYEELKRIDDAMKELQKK

Row | SMILES | IC50 [1, 7] | inhibition at 0.01 µM [4] | inhibition at 0.1 µM [4] | ORAC [5] | also measured
1 | COc1cc(CNc2nc3c(cnn3C3CCCC3)c(=O)[nH]2)ccc1OC(=O)N(C)C [Compound 4] | 17 nM |  |  |  | IC50 [2]: 960 nM
2 | O=c1[nH]c(COCCC2CCN(Cc3ccccc3)CC2)nc2c1cnn2C1CCCC1 [Compound 5] | 285 nM |  |  |  | IC50 [3]: 223 nM
3 | CC(Nc1nc2c(cnn2C2CCCC2)c(=O)[nH]1)c1ccc(Cl)cc1 (centres unmarked) [Compound C33] |  |  |  |  | IC50 ([1]; previously reported): 16 nM
4 | CC(Cc1n[nH]c2ccccc12)Nc1nc2c(cnn2C2CCCC2)c(=O)[nH]1 (centres unmarked) [Compound 17g, 6-((1-(1H-indazol-3-yl)propan-2-yl)amino)-1-cyclopentyl-1,5-dihydro-4H-pyrazolo[3,4-d]pyrimidin-4-one] |  | 70% | 82% | 0.17 ± 0.004 μmol of Trolox equiv/μmol tested compound | 
5 | O=c1[nH]c(Cc2ccccn2)nc2c1cnn2C1CCOCC1 [Compound 2, Osoresnontrine] | 65 nM |  |  |  | 
6 | C[C@@H]1CN(Cc2ccc(C(=O)NO)cc2)C[C@H]1c1nc2c(cnn2C2CCCC2)c(=O)[nH]1 [Compound 6] | 107 nM |  |  |  | IC50 [6]: 40 nM
7 | CC(Cc1c[nH]c2ccccc12)Nc1nc2c(cnn2C2CCCC2)c(=O)[nH]1 (centres unmarked) [Compound 17a, 6-((1-(1H-indol-3-yl)propan-2-yl)amino)-1-cyclopentyl-1,5-dihydro-4H-pyrazolo[3,4-d]pyrimidin-4-one] |  | 68% | 78% | 0.37 ± 0.04 μmol of Trolox equiv/μmol tested compound | 
8 | C[C@@H](NCc1c[nH]c2ccccc12)c1nc2c(cnn2C2CCCC2)c(=O)[nH]1 [Compound 18a, (R)-6-(1-(((1H-indol-3-yl)methyl)amino)ethyl)-1-cyclopentyl-1,5-dihydro-4H-pyrazolo[3,4-d]pyrimidin-4-one] |  | 46% | ~50% | 0.60 ± 0.06 μmol of Trolox equiv/μmol tested compound | 
9 | COc1ccc2[nH]nc(CC(C)Nc3nc4c(cnn4C4CCCC4)c(=O)[nH]3)c2c1 (centres unmarked) [Compound 17h, 1-cyclopentyl-6-((1-(5-methoxy-1H-indazol-3-yl)propan-2-yl)amino)-1,5-dihydro-4H-pyrazolo[3,4-d]pyrimidin-4-one] |  | 65% | 69% | 0.22 ± 0.12 μmol of Trolox equiv/μmol tested compound | 

— PMC11852235, “Discovery of Effective Inhibitors Against Phosphodiesterase 9, a Potential Therapeutic Target of Alzheimer’s Disease with Antioxidant Capacities” (Antioxidants, 2025)
